ChEMBL document CHEMBL3232823, “Non-imidazole histamine H3 receptor ligands incorporating antiepileptic moieties” (Eur J Med Chem, 2014)
pKi: −log10 of the molar value. Active and inactive are the calls of the source. The rule behind the calls is not given here.

Columns and labels:
Histamine H3 receptor = Histamine H3 receptor (Homo sapiens, UniProt Q9Y5N1); test: Displacement of [3H]N-alpha-methylhistamine from human H3 receptor expressed in HEK-293 cell membrane after 90 mins by liquid scintillation counting analysis; format: cell membranes, HEK293
Histamine H4 receptor = Histamine H4 receptor (Homo sapiens, UniProt Q9H3N8); test: Displacement of [3H]histamine from human H4 receptor expressed in Sf9 cell membrane co-transfected with Galphai2 and Gbeta1gamma2 after 60 mins by liquid scintillation counting analysis
Histamine H1 receptor = Histamine H1 receptor (Homo sapiens, UniProt P35367); test: Displacement of [3H]pyrilamine from human H1 receptor expressed in CHO cell membrane after 120 mins by liquid scintillation counting analysis; format: cell membranes
Rattus norvegicus [1] = test: Anticonvulsant activity in Wistar rat assessed as protection against maximal electroshock-induced convulsions at 1 to 10 mg/kg, ip administered 30 mins before MES challenge; format: functional, organism-based
Rattus norvegicus [2] = test: Proconvulsant activity in maximal electroshock-induced convulsions Wistar rat model assessed as tonic hindlimb extensions at 1 to 10 mg/kg, ip administered 30 mins before MES challenge; format: ADME, organism-based; parameters: dose 1-10 mg/kg, route intraperitoneal; conditions: in vivo, 0.5 h
Rattus norvegicus [3] = test: Anticonvulsant activity against PTZ-kindled convulsion Wistar rat model assessed as reduction in convulsions at 1 to 10 mg/kg, ip administered 30 mins before PTZ challenge measured for 10 to 30 mins; format: functional, organism-based
Rattus norvegicus [4] = test: Anticonvulsant activity in Wistar rat assessed as protection against maximal electroshock-induced convulsions at 10 mg/kg, ip administered 30 mins before MES challenge; format: functional, organism-based; parameters: dose 10 mg/kg
Rattus norvegicus [5] = test: Anticonvulsant activity in Wistar rat assessed as protection against maximal electroshock-induced convulsions at 1 mg/kg, ip administered 30 mins before MES challenge; format: functional, organism-based; parameters: dose 1 mg/kg
Rattus norvegicus [6] = test: Anticonvulsant activity against PTZ-kindled convulsion Wistar rat model assessed as reduction in convulsions at 10 mg/kg, ip administered 30 mins before PTZ challenge measured for 10 to 30 mins; format: functional, organism-based; parameters: dose 10 mg/kg
Rattus norvegicus [7] = test: Anticonvulsant activity against PTZ-kindled convulsion Wistar rat model assessed as reduction in convulsions at 1 mg/kg, ip administered 30 mins before PTZ challenge measured for 10 to 30 mins; format: functional, organism-based; parameters: dose 1 mg/kg
Rattus norvegicus [8] = test: Anticonvulsant activity against PTZ-kindled convulsion Wistar rat model assessed as prolongation of latency time to myoclonic convulsions at 10 mg/kg, ip administered 30 mins before PTZ challenge; format: functional, organism-based; parameters: dose 10 mg/kg
Rattus norvegicus [9] = test: Anticonvulsant activity against PTZ-kindled convulsion Wistar rat model assessed as decrease in total convulsion time at 10 mg/kg, ip administered 30 mins before PTZ challenge; format: functional, organism-based; parameters: dose 10 mg/kg
Rattus norvegicus [10] = test: Anticonvulsant activity against PTZ-kindled convulsion Wistar rat model assessed as increase in latency time to clonic-tonic convulsions at 10 mg/kg, ip administered 30 mins before PTZ challenge; format: functional, organism-based; parameters: dose 10 mg/kg
Rattus norvegicus [11] = test: Anticonvulsant activity against PTZ-kindled convulsion Wistar rat model assessed as latency for the first atypical behaviours at 10 mg/kg, ip administered 30 mins before PTZ challenge; format: functional, organism-based; parameters: dose 10 mg/kg

Chain of Histamine H1 receptor (P35367 whole entry): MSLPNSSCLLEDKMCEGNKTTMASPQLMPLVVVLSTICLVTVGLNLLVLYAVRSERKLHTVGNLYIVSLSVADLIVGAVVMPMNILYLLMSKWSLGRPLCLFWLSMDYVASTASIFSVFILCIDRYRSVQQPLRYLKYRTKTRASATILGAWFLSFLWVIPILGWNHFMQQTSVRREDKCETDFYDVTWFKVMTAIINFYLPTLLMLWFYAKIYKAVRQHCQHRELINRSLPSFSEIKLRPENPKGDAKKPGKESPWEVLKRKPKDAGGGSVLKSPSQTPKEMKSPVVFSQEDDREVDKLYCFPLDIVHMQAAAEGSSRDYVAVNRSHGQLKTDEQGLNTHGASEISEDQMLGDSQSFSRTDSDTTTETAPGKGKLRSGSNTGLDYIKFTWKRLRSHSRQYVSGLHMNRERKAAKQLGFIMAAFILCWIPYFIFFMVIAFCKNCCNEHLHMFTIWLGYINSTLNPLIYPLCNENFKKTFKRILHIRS
Chain of Histamine H3 receptor (Q9Y5N1 whole entry): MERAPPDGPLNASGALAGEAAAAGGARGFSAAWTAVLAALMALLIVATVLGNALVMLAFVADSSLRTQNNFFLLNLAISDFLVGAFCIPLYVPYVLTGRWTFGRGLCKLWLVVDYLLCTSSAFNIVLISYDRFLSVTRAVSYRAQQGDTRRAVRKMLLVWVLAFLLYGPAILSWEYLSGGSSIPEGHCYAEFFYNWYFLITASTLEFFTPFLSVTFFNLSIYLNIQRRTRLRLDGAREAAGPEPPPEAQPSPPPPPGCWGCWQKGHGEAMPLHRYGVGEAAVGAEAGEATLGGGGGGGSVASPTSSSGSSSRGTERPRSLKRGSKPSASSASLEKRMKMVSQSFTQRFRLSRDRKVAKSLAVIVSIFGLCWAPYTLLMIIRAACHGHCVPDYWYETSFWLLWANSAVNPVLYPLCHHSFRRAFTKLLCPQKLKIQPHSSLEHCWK
Chain of Histamine H4 receptor (Q9H3N8 whole entry): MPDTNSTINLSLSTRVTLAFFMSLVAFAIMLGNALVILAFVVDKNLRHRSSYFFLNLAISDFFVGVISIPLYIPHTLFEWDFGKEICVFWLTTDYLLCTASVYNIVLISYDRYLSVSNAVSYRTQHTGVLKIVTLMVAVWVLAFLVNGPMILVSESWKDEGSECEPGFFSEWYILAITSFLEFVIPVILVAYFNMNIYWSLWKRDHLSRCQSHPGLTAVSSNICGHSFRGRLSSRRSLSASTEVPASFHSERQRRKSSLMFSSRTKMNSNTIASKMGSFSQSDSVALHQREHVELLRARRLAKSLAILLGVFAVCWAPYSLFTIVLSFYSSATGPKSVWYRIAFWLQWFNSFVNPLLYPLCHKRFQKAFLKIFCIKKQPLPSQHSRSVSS

SMILES	pKi (Histamine H3 receptor)	pKi (Histamine H4 receptor)	pKi (Histamine H1 receptor)	Activity (Rattus norvegicus [1])	other results
Cc1nnc(-c2cccnc2)n1-c1ccc(OCCCN2CCCCC2)cc1	9.62	2.85	4.98	inactive	–
S=C(NC1CCCCC1)N1CCC(c2cnc[nH]2)CC1 [THIOPERAMIDE]	–	–	< 5.00	–	–
O=C1NC(c2ccccc2)(c2ccccc2)C(=O)N1Cc1ccc(OCCCN2CCCCC2)cc1	7.12	5.03	5.65	inactive	Activity (Rattus norvegicus [2]): Toxic; inhibition (Rattus norvegicus [3]): inactive
O=C1NC(=O)C(c2ccccc2)(c2ccccc2)N1	–	–	–	–	Activity (Rattus norvegicus [4]): Active
Cc1nnc(C)n1-c1ccc(OCCCN2CCCCC2)cc1	9.03	4.69	4.53	inactive	–
C[C@H](NCc1ccc(OCCCN2CCCCC2)cc1)C(N)=O	7.37	3.48	4.50	inactive	–
O=C1NC(c2ccccc2)(c2ccccc2)C(=O)N1CCCN1CCCCC1	6.25	3.31	5.21	–	Activity (Rattus norvegicus [5]): Active; inhibition (Rattus norvegicus [6]): Active; inhibition (Rattus norvegicus [7]): inactive; Activity (Rattus norvegicus [8]): Active; Activity (Rattus norvegicus [9]): Active; Activity (Rattus norvegicus [10]): Active; Activity (Rattus norvegicus [11]): inactive
Clc1ccc(CCCOCCCN2CCCCC2)cc1 [PITOLISANT]	–	< 5.00	–	–	Activity (Rattus norvegicus [4]): Active
